Test results published in patent US4663325A, “1-(2,3,4-tri-methoxybenzyl)-4[bis(4-fluorophenyl)methyl] piperazines are useful for treating cerebrovascular disease” (Kanebo Ltd., priority 1984, dated 1987).

Key:
vertebral blood flow = assay: Activity of increasing cerebral blood flow (vertebral blood flow as index, anesthetized dogs, intravenous); type: in vivo; conditions: 1 mg/kg i.v. (right femoral vein), anesthetized mongrel dogs
Description: The activity of increasing cerebral blood flow was measured by using the amount of vertebral blood flow as an index. Mongrel dogs of either sex (body weight 11 to 18 kg; four per groups) were anesthetized with sodium pentobarbital (30 mg/kg, by intravenous injection), and the right vertebral artery was isolated from the surrounding tissues. A flow probe was attached to it and led to an electromagnetic flow meter (MFV-2100 made by Nihon Kohden Co., Ltd.). The amount of blood flow was periodically measured [see Meth and Find Exptl Clin Pharmacol, 3 (6), 397 (1981)].
Each of the test compounds was dissolved in a 2% tartaric acid solution containing 20% dimethylacetamide, and administered to the right femoral vein in a dose of 1 mg/kg.

[1] = system: death induced by collagen and adrenaline; assay: Activity of defending thromboembolism-induced death (collagen and adrenaline, mice, oral); type: in vivo, ddY-strain male mice; conditions: Mus musculus, 1 h, one hour before collagen (400 micrograms/kg) and adrenaline (50 micrograms/kg) i.v., male ddY mice, probit method, read-out: ED50 (dose required to defend death induced by collagen and adrenaline to an extent of 50%)
Description: The compounds A, B, C and D of the invention and the comparative compounds 1 and 2 were used.
Each of the test compounds was dissolved or suspended in a 1% gum arabic solution, and orally administered to ddY-strain male mice (body weight 18 to 25 g; five per group). […] The dose required to defend death induced by collagen and adrenaline to an extent of 50% (ED50) was determined by the probit method (see The Journal of Pharmacology and Experimental Therapeutics, Vol. 225, page 57, 1983).

[2] = Acute toxicity (oral, mice); conditions: mouse, in vivo, fasted male ddY mice, deaths during seven days, Weil method
Description: ddY-strain male mice (body weight 18 to 22 g; five per group) were caused to fast 24 hours. Then, each of the compounds of this invention (A, B, C and D) was administered orally, and acute toxicity values (LD50) were determined.
Each of the compounds was dissolved or suspended in a 2% tartaric acid solution containing 20% of dimethylacetamide, and orally administered to the animals. From the number of animals which died during seven days, the LD50 values were calculated by using the Weil method.

[3] = 0.5 minutes after administration
[4] = 10 minutes after administration
[5] = 20 minutes after administration

| SMILES | Increase (%) in vertebral blood flow (mean ± standard error) (vertebral blood flow; [3]) | Increase (%) in vertebral blood flow (mean ± standard error) (vertebral blood flow; 3 minutes after administration) | Increase (%) in vertebral blood flow (mean ± standard error) (vertebral blood flow; 5 minutes after administration) | Increase (%) in vertebral blood flow (mean ± standard error) (vertebral blood flow; [4]) | Increase (%) in vertebral blood flow (mean ± standard error) (vertebral blood flow; [5]) | ED50 [1] | LD50 at 168 h [2] |
| --- | --- | --- | --- | --- | --- | --- | --- |
| C(=Cc1ccccc1)CN1CCN(C(c2ccccc2)c2ccccc2)CC1 [Cinnarizine, 1-Cinnamyl-4-benzhydrylpiperazine, reference compound] | 65.6 ± 18.2% | 34.7 ± 15.6% | 17.0 ± 8.7% | 2.9 ± 3.8% | 0% | – | – |
| COc1ccc(CN2CCN(C(c3ccccc3)c3ccc(F)cc3)CC2)c(OC)c1.O=C(O)/C=C/C(=O)O (stereo not drawn) [A, 1-(2,4-Dimethoxybenzyl)-4-(4-fluorobenzhydryl)-piperazine fumarate] | 80.1 ± 17.0% | 56.5 ± 15.0% | 39.1 ± 12.2% | 16.2 ± 5.4% | 11.3 ± 4.1% | 29.6 mg/kg | 300 mg/kg |
| COc1ccc(CN2CCN(C(c3ccccc3)c3ccc(F)cc3)CC2)c(OC)c1OC.O=C(O)/C=C/C(=O)O (stereo not drawn) [C, 1-(2,3,4-Trimethoxybenzyl)-4-(4-fluorobenzhydryl)piperazine fumarate] | 76.7 ± 15.1% | 61.2 ± 14.9% | 50.6 ± 12.4% | 27.7 ± 6.3% | 16.4 ± 4.6% | 32.7 mg/kg | 650 mg/kg |
| Cl.Cl.c1ccc(C(c2ccccc2)N2CCN(Cc3ccc4c(c3)OCO4)CC2)cc1 [compound 2, 1-(3,4-Methylenedioxybenzyl)-4-benzhydrylpiperazine dihydrochloride, reference compound] | 50.6 ± 13.2% | 13.5 ± 6.9% | 7.4 ± 4.9% | 2.5 ± 3.3% | 0.4 ± 2.2% | 44.7 mg/kg | – |
| COc1ccc(CN2CCN(C(c3ccc(F)cc3)c3ccc(F)cc3)CC2)c(OC)c1OC.Cl.Cl [Compound D, 1-(2,3,4-Trimethoxybenzyl)-4-[bis(4-fluorophenyl)methyl]piperazine dihydrochloride] | 95.9 ± 14.5% | 102.6 ± 24.5% | 107.0 ± 23.9% | 87.0 ± 21.1% | 65.1 ± 15.3% | 7.7 mg/kg | 300 mg/kg |
| COc1ccc(CN2CCN(C(c3ccc(F)cc3)c3ccc(F)cc3)CC2)c(OC)c1.Cl.Cl.O.O [B, 1-(2,4-Dimethoxybenzyl)-4-[bis(4-fluorophenyl)-methyl]piperazine dihydrochloride dihydrate] | 105.6 ± 3.9% | 85.8 ± 15.0% | 77.0 ± 15.6% | 47.5 ± 17.7% | 27.1 ± 13.4% | 24.6 mg/kg | 225 mg/kg |
| COc1ccc(CN2CCN(C(c3ccccc3)c3ccccc3)CC2)c(OC)c1OC.Cl.Cl.O [compound 1, 1-(2,3,4-Trimethoxybenzyl)-4-benzhydrylpiperazine dihydrochloride monohydrate, reference compound] | 75.3 ± 20.0% | 39.2 ± 15.3% | 25.6 ± 12.5% | 10.0 ± 5.3% | 5.0 ± 3.3% | 55.4 mg/kg | – |
